This note sets out measurements from patent US20220288037A1, “PRODRUGS AND FORMULATIONS THEREOF” (BOARD OF REGENTS OF THE UNIVERSITY OF NEBRASKA, priority 2019, published 2022).

This series can be described thus: aqueous solubility of prodrug. The format is physicochemical. The following applies: prodrug compared with parent drug, FIG. 1B. The source says:
FIGS. 1A-1D provide characterization of a prodrug of nitazoxanide ([…]) and a nanoformulation thereof (NM1NTZ). FIG. 1A provides a Fourier transform infrared (FT-IR) spectrum of […] showing absorption bands at 2915 cm^-1 and 2850 cm^-1, thereby confirming formation of the prodrug as well as the nuclear magnetic resonance spectroscopy of the compound. FIG. 1B provides a graph of the aqueous solubility of […]. […] FIG. 1C provides a graph of cell viability as evaluated by mitochondrial function in monocyte-derived macrophage (MDM) by a 3-(4,5-dimethylthiazol-2-yl)-2,5-diphenyltetrazolium bromide (MTT) assay. NM1NTZ exerted no adverse effects to cell viability at 400 μM of drug or less. FIG. 1D provides graphs showing the particle size, polydispersity index (PDI) and charge of the nanoformulations over time, thereby showing the stability of the nanoparticles.

Molecules are shown by their SMILES.

For `CCCCCCCCCCCCCCCCCC(=O)Oc1ccccc1C(=O)Nc1ncc([N+](=O)[O-])s1` [M1NTZ], the aqueous solubility entry is listed as “decreased water solubility”.
